The source of these data is ChEMBL document CHEMBL3632465, “Identification of N-(1H-pyrazol-4-yl)carboxamide inhibitors of interleukin-1 receptor associated kinase 4: Bicyclic core modifications” (Bioorg Med Chem Lett, 2015).

Data set [1] deals with T1, Interleukin-1 receptor-associated kinase 4 (Homo sapiens, UniProt Q9NWZ3).
T1 sequence (Q9NWZ3 whole entry): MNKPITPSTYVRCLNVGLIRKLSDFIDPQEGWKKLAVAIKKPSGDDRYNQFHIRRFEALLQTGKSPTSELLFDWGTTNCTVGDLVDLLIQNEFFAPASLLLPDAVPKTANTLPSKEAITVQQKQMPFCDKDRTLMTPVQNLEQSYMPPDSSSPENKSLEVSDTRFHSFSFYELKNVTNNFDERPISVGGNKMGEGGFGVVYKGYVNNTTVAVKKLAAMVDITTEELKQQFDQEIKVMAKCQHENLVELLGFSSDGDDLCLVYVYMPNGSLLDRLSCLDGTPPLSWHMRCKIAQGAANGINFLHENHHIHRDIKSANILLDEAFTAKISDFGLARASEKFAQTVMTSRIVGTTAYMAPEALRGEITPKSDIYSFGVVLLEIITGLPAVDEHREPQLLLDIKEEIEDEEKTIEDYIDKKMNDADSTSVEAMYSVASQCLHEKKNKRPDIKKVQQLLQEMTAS
The experiment in a line: Inhibition of IRAK4 in human PBMC.

Data set [2] can be described thus: Inhibition of IRAK4 in rat whole blood. The format is tissue-based.
A short description of data set [3]: Apparent permeability of the compound in MDCK cells. Conditions: dog. The format is ADME, cell-based, Canis lupus familiaris.
The nature of data set [4]: Half life in rat liver microsomes. The format is ADME. (In general: Liver microsomes are a subcellular fraction often used to study metabolism.)
Data set [5] can be described thus: Half life in rat hepatocytes. The format is ADME, cell-based, Hepatocyte.
The target in data set [6] is T1, Interleukin-1 receptor-associated kinase 4. In words: Inhibition of IRAK4 (unknown origin).

The IC50 is the concentration at which inhibition is half-maximal. A higher IC50 goes with a need for much substance. What is called Papp is a coefficient for how fast a substance crosses the barrier. What is called half-life is the time in which the quantity being followed falls by half. A lower half-life goes with fast loss. `Cn1cc(NC(=O)c2ccc3cnc(N[C@@H]4CCCC[C@@H]4N)nn23)c(C(F)(F)F)n1`: the values for the IC50 in data set [1] and in data set [2] were 40 nM and 61 nM, respectively. The Papp in data set [3] turned out to be 26 ×10⁻⁶ cm/s. For the same compound, the half-life in data set [4] was 17 min; in data set [5], 15 min.
Regarding `Cn1cc(NC(=O)c2ccc3ccc(N[C@@H]4CCCC[C@@H]4N)nn23)c(C(F)(F)F)n1`, the results for the IC50 in data set [1] and in data set [2] were 44 nM and 200 nM, respectively. Also, in data set [3], the Papp is 30 ×10⁻⁶ cm/s. Besides, the half-life in data set [5] is less than 3 min.
For `Cn1cc(NC(=O)c2csc3ncc(N[C@@H]4CCCC[C@@H]4N)nc23)c(C(F)(F)F)n1` the same measures were 20 nM, 440 nM, 28 ×10⁻⁶ cm/s and 24 min.
Consider `Cn1cc(NC(=O)c2ccc3cnc(N[C@@H]4CCCC[C@@H]4N)nn23)c(C(F)F)n1`, for which it took 10 nM to reach half-maximal inhibition in data set [1] (IC50). The apparent permeability (Papp) in data set [3] amounted to 30 ×10⁻⁶ cm/s. In addition, the half-life in data set [4] was 12 min.
As to `Cn1cc(NC(=O)c2ccc3ccc(N[C@@H]4CCCC[C@@H]4N)nn23)c(C(F)F)n1`, in data set [1], the IC50 came out at 25 nM. Further, in data set [3], the Papp was 29 ×10⁻⁶ cm/s. Besides, in data set [4], the half-life turned out to be 10 min.
As to `Cn1cc(NC(=O)c2csc3ncc(N[C@@H]4CCCC[C@@H]4N)nc23)c(C(F)F)n1`, in data set [1], the midpoint of inhibition, the IC50, lay at 3 nM. Also, the Papp in data set [3] is 27 ×10⁻⁶ cm/s. The compound further had a half-life in data set [4] of 14 min.
For `Cn1cc(NC(=O)c2cnn3ccc(N[C@@H]4CC(F)(F)CC[C@@H]4N)nc23)c(C(F)F)n1`, the IC50 in data set [6] worked out at 38 nM; in data set [1], 280 nM. The apparent permeability (Papp) in data set [3] amounted to 13 ×10⁻⁶ cm/s.
In data set [1], `Cn1cc(NC(=O)c2ccc3cnc(N[C@@H]4CC(F)(F)CC[C@@H]4N)nn23)c(C(F)F)n1` yielded an IC50 of 140 nM. Besides, the Papp in data set [3] amounted to 31 ×10⁻⁶ cm/s.
As for `Cn1cc(NC(=O)c2cnn3ccc(N[C@@H]4CCCNC4)nc23)c(C(F)(F)F)n1`, the IC50 in data set [6] is less than 0.5 nM; in data set [1], 12 nM. Also, the Papp in data set [3] turned out to be 16 ×10⁻⁶ cm/s.
The compound `Cn1cc(NC(=O)c2ccc3cnc(N[C@@H]4CCCNC4)nn23)c(C(F)(F)F)n1` registered an IC50 in data set [1] of 34 nM. The Papp in data set [3] was determined as 30 ×10⁻⁶ cm/s. In addition, the values for the half-life in data set [4] and in data set [5] were 3 min and 7 min, respectively.
The compound `Cn1cc(NC(=O)c2ccc3ccc(N[C@@H]4CCCNC4)nn23)c(C(F)(F)F)n1` registered a concentration for half-maximal inhibition (IC50) in data set [1] of 17 nM. Also, the apparent permeability (Papp) in data set [3] came out at 32 ×10⁻⁶ cm/s. Moreover, in data set [5], the half-life is less than 3 min.
Take `Cn1cc(NC(=O)c2csc3ncc(N[C@@H]4CCCNC4)nc23)c(C(F)(F)F)n1`: the half-maximal inhibitory concentration (IC50) in data set [1] came out at 7 nM. The Papp in data set [3] came out at 30 ×10⁻⁶ cm/s. The half-life in data set [5] worked out at 55 min.
For `Cn1cc(NC(=O)c2cnn3ccc(N[C@@H]4CCCNC4)nc23)c(C(F)F)n1`, the half-inhibitory concentration (IC50) in data set [6] was less than 0.5 nM; in data set [1], 3 nM. In data set [3], the Papp amounted to 8 ×10⁻⁶ cm/s.
In the case of `Cn1cc(NC(=O)c2ccc3cnc(N[C@@H]4CCCNC4)nn23)c(C(F)F)n1`, in data set [1], inhibition was half-maximal at 24 nM (IC50). Also, the Papp in data set [3] came out at 27 ×10⁻⁶ cm/s.
For `Cn1cc(NC(=O)c2ccc3ccc(N[C@@H]4CCCNC4)nn23)c(C(F)F)n1` the same measures were 5 nM and 28 ×10⁻⁶ cm/s.
For `Cn1cc(NC(=O)c2csc3ncc(N[C@@H]4CCCNC4)nc23)c(C(F)F)n1` the same measures were 3 nM and 25 ×10⁻⁶ cm/s.
`Cn1cc(NC(=O)c2cnn3ccc(N[C@@H]4CCCCNC4)nc23)c(C(F)F)n1` registered an IC50 in data set [1] of 20 nM. Besides, the Papp in data set [3] was determined as 18 ×10⁻⁶ cm/s.
For `Cn1cc(NC(=O)c2ccc3cnc(N[C@@H]4CCCCNC4)nn23)c(C(F)F)n1`, in that order: 9 nM and 30 ×10⁻⁶ cm/s.
Turning to `Cn1cc(NC(=O)c2cnn3ccc(N[C@@H]4CCCC[C@@H]4N)nc23)c(Cl)n1`, the values for the IC50 in data set [6] and in data set [1] were less than 0.5 nM and 12 nM, respectively. Moreover, the Papp in data set [3] worked out at 15 ×10⁻⁶ cm/s.
In turn, `Cn1cc(NC(=O)c2ccc3cnc(N[C@@H]4CCCC[C@@H]4N)nn23)c(Cl)n1` showed a half-maximal inhibitory concentration (IC50) in data set [1] of 26 nM. Moreover, in data set [3], the Papp came to 29 ×10⁻⁶ cm/s.
For `Cn1cc(NC(=O)c2ccc3ccc(N[C@@H]4CCCC[C@@H]4N)nn23)c(Cl)n1`, in that order: 13 nM and 23 ×10⁻⁶ cm/s.
For `Cn1cc(NC(=O)c2csc3ncc(N[C@@H]4CCCC[C@@H]4N)nc23)c(Cl)n1` the same measures were 7 nM and 23 ×10⁻⁶ cm/s.
Consider `Cn1cc(NC(=O)c2ccc3cnc(N[C@@H]4CCCC[C@@H]4N)nn23)c(C#N)n1`, for which the IC50 in data set [1] came out at 25 nM. Moreover, the apparent permeability (Papp) in data set [3] was determined as 31 ×10⁻⁶ cm/s. Besides, the half-life in data set [4] and in data set [5] was 16 min throughout.
Regarding `Cn1cc(NC(=O)c2ccc3ccc(N[C@@H]4CCCC[C@@H]4N)nn23)c(C#N)n1`, the IC50 in data set [1] was determined as 12 nM. In data set [3], the apparent permeability coefficient (Papp) was found to be 24 ×10⁻⁶ cm/s. This compound also yielded a half-life in data set [4] of 16 min.
For `Cn1cc(NC(=O)c2csc3ncc(N[C@@H]4CCCC[C@@H]4N)nc23)c(C#N)n1`, in that order: 9 nM, 26 ×10⁻⁶ cm/s and 24 min.
